Assay results as given in US10383867B2, “Quinoline derivatives and their use for treating endoplasmic reticulum stress-related diseases and disorders” (priority 2015, dated 2019).

Key:
[1] = system: HEK293 cells / N2a cells under ER stress; assay: ER stress cell rescue assay (protection against thapsigargin- or hydrogen peroxide-induced cell-death); assay type: cell-based, human (HEK293), mouse (N2a); conditions: cell rescue from induced ER stress; cell line of the EC50 not specified
Method: Protection against Thapsigargin (TG)-induced Cell-death. Human embryonic kidney (HEK293) cells were grown in Dulbecco's Modified Eagle's Medium (DMEM) with 10% FBS and 1% antibiotic antimycotic solution (ABAM). Mouse neuroblastoma (N2a) cells were grown in 1:1 DMIEM:OPTI-MEM® with 5% FBS and 1% ABAM. All cells were grown in 10% CO2 in a humidified environment of the incubator. Cells grown in 96-well plates were exposed to a test compound (20 μM) for 2 hrs before addition of thapsigargin (15 μM for HEK293 cells and 1 μM for N2a cells) to induce ER stress. After incubation in cell-culture incubator for 24 hrs, ALAMARBLUE® regent (10% v/v) was added to the wells. Fluorescence reading was taken 2 hrs after the addition of the ALAMARBLUE® regent. Cell-viability was calculated as a percentage of relative fluorescence unit (RFU) compared to control.
Protection against Hydrogen Peroxide-induced Cell-death. N2a cell grown in 96-well plates were exposed to a test compound (40 μM) for 2 hrs before addition of hydrogen peroxide (200 μM). After 40 min of incubation with hydrogen peroxide, ALAMARBLUE® regent (10% v/v) was added to the wells. Fluorescence reading was taken 2 hrs after the addition of the ALAMARBLUE® regent. Cell-viability was calculated as a percentage of relative fluorescence unit (RFU) compared to control.
The results are summarized in Table 1, where, for ER stress cell rescue ECso values, A represents a value smaller than 20 μM, B represents a value between 20 μM to 100 μM, C represents a value greater than 100 μM.

SERCA = assay: Activation of SERCA (NADH-linked, enzyme-coupled ATPase assay); assay type: biochemical; conditions: for Increase in Vmax at 10 μM: SERCA ATPase, compound at 10 μM; for EC50: SR vesicles, concentration for 50% activation of the maximum Vmax
Method: Test compounds were characterized over a range of concentrations using an NADH-linked, enzyme-coupled ATPase assay. Each well contained […] of SR vesicles (optimized for skeletal or cardiac SR, respectively), 50 mM MOPS (pH 7.0), 100 mM KCl, 5 mM MgCl2, 1 mM EGTA, 0.2 mM NADH, 1 mM phosphoenol pyruvate, 5 IU pyruvate kinase, 5 IU lactate dehydrogenase, and […] A23187 (a calcium ionophore), and CaCl2 was added to set free [Ca^2+] to the specific values. The assay was started upon addition of ATP at a final concentration of 5 mM, and read in a SpectraMax Plus microplate spectrophotometer and the ATPase activities were fitted using the Hill function. ECso values were determined as the concentrations of the test compounds that were required for 50% activation of the maximum Vmax.
The biological results are summarized in Table 1, wherein, for SERCA ATPase EC50 values, A represents a value smaller than 20 μM, B represents a value between 20 μM to 100 μM, C represents a value greater than 100 μM; and for increases in Vmax at 10 μM, A′ represents an increase greater than 50%, B′ represents an increase between 20 to 50%, and C′ represents an increase no greater than 20%.

| SMILES | EC50 (SERCA) | EC50 [1] | Increase in Vmax at 10 μM (SERCA) |
| --- | --- | --- | --- |
| Cc1ccc2cccc(/C=C/c3ccc(OC(C)C)cc3)c2n1 [A1, (E)-8-(Isopropoxystyryl)-2-methylquinoline] |  | < 20 µM |  |
| Cc1ccc2cccc(NCc3cc(Br)cs3)c2n1 [C2, N-((4-Bromothiophen-2-yl)methyl)-2-methylquinolin-8-amine] | < 20 µM | < 20 µM | B′ (B′ represents an increase between 20 to 50%) |
| Cc1ccc2cccc(NCc3ccc(Br)s3)c2n1 [C3, N-((5-Bromothiophen-2-yl)methyl)-2-methylquinolin-8-amine] | < 20 µM | < 20 µM | B′ (B′ represents an increase between 20 to 50%) |
| Cc1ccc2cccc(NS(=O)(=O)c3cc(Br)cs3)c2n1 [D2, 4-Bromo-N-(2-methylquinolin-8-yl)thiophene-2-sulfonamide] | < 20 µM | < 20 µM | B′ (B′ represents an increase between 20 to 50%) |
| Cc1ccc2cccc(-c3nc(-c4ccc(Br)s4)no3)c2n1 [B2, 3-(5-Bromothiophen-2-yl)-5-(2-methylquinolin-8-yl)-1,2,4-oxadiazole] | < 20 µM | < 20 µM | B′ (B′ represents an increase between 20 to 50%) |
| Cc1ccc2cccc(NS(=O)(=O)c3ccc(Br)s3)c2n1 [D3, 5-Bromo-N-(2-methylquinolin-8-yl)thiophene-2-sulfonamide] | < 20 µM | < 20 µM | B′ (B′ represents an increase between 20 to 50%) |

Second part, led by results:

| EC50 (SERCA) | SMILES | EC50 [1] | Increase in Vmax at 10 μM (SERCA) |
| --- | --- | --- | --- |
| < 20 µM | Cc1ccc2cccc(NCc3ccc(OC(C)C)cc3)c2n1 [C1, N-((4-Isopropoxyphenyl)methyl)-2-methylquinolin-8-amine] | < 20 µM | B′ (B′ represents an increase between 20 to 50%) |
| < 20 µM | Cc1ccc2cccc(NS(=O)(=O)c3ccc(OC(C)C)cc3)c2n1 [D1, N-(2-Methylquinolin-8-yl)-5-isopropoxyphenyl-2-sulfonamide] | < 20 µM | C′ (C′ represents an increase no greater than 20%) |
| < 20 µM | Cc1ccc2cccc(-c3nc(-c4ccc(OC(C)C)cc4)no3)c2n1 [B1, 3-(4-Isopropoxyphenyl)-5-(2-methylquinolin-8-yl)-1,2,4-oxadiazole] | < 20 µM | B′ (B′ represents an increase between 20 to 50%) |
